Series [1] in a line: In vivo PK experiments in beagle dogs, oral gavage. The method, then:
The samples were detected by LC-MS/MS, and AUC, Cmax, and Tmax parameters were calculated by employing WinNonlin version 6.4.

The nature of series [2]: Solubility test in water and biological vehicles (FaSSIF, FeSSIF). Type of series: physicochemical. The following applies: for solubility at 24 h: thermodynamic from solid, 37° C., HPLC, crystal form A calculated based on the free acid.
The conditions of series [3]: background art; cited from earlier work.
Where [4] appears, read: dog, blood, beagle dogs, P.O. 300 mg/kg, single oral gavage.

≈ marks a conversion by molar mass, not a printed value. Read-outs that look alike come from different tables or passages of the source.

By AUC(0-t) is commonly meant the area under the concentration-time curve up to a stated or last time point. Read a high AUC(0-t) as high exposure. The term Cmax denotes the peak of the concentration-time curve. For orientation: Tmax means the time at which the peak concentration occurs. One may read the solubility as how much of the substance goes into solution per volume.

For the compound `CC/C(=C(/c1ccc(/C=C/C(=O)O)cc1)c1[nH]c2ccccc2c1Cl)c1ccc(F)cc1Cl` [compound I-8], the AUC(0-t) in series [1] (setting [4]) is 613 µM·h. The compound also had a Cmax in series [1] (setting [4]) of 43.5 µM. Further, the Tmax in series [1] (setting [4]) was 6 h. Further, the MRT last in series [1] (dog, blood, beagle dogs, P.O. 300 mg/kg, single oral gavage, read-out: MRT0-last) came out at 10.6 h. Besides, the solubility at 24 h was 117 µg/mL (≈ 244 µM) in series [2] (FaSSIF (simulated pre-meal intestinal fluid), read-out: Solubility in FaSSIF); 440 µg/mL (≈ 916 µM) in series [2] (FeSSIF (simulated post-meal intestinal fluid), read-out: Solubility in FeSSIF); 8 µg/mL (≈ 16.7 µM) in series [2] (purified water, read-out: Solubility in H2O).

On to `CC/C(=C(/c1ccc(/C=C/C(=O)O)cc1)c1[nH]c2ccccc2c1Cl)c1ccc(F)cc1Cl` [compound of formula (I)], for which the “Amount of exposure in the organism compared with compound 1-8” value in series [1] (in vivo pharmacokinetic studies, versus compound 1-8) is “significantly increased”. The “Solubility in biological media compared with compound 1-8” value in series [2] (biological media, versus compound 1-8) was “significantly improved”. Also, the “Solubility in water compared with free acid compound 1-8” value in series [2] (water, versus compound 1-8) is “nearly hundredfold improved”.

As to `C[C@]12CC[C@@H]3c4ccc(O)cc4C[C@@H](CCCCCCCCC[S+]([O-])CCCC(F)(F)C(F)(F)F)[C@H]3[C@@H]1CC[C@@H]2O` (some centres unmarked) [fulvestrant], in series [3], the Oral bioavailability entry is given as “zero oral bioavailability”.

Values taken from patent publication US12098127B2, “Salt form of estrogen receptor downregulator, crystalline form thereof, and preparation method therefor” (LUOXIN PHARMACEUTICAL (SHANGHAI) CO., LTD., priority 2018, dated 2024).
